According to patent EP0213108A2, “Pharmaceutical preparation containing an antihypotonic as the active agent” (Burghart, Kurt, Dr., priority 1985, dated 1987):
Structures can show the parent of a compound that is named as a salt.

Experiment: Pulse and systolic/diastolic blood pressure over time after sublingual aerosol or oral administration
Format: in vivo
Details: hydrochloride, oral
Experimental: Die raschere Wirksamkeit der erfindungsgemäßen pharmazeutischen Zubereitung relativ zu einer konventionellen Zubereitung wird nachfolgen an Hand eine Ausführungsbeispieles näher erläutert.
In einer alkoholischen Lösung wurden hiebei unter Verwendung von Trichlorfluorkohlenwasserstoff als Treibgas 2,5 mg 1-(3'--Hydroxyphenyl)-2-aminoäthanol als Aerosol sublingual verabreicht. In der nachfolgenden Tabelle I sind unter A die Vergleichswerte für den systolischen und den diastolischen Druck über die Zeit bei Versprühen eines Placebos, unter B die Werte für den systolischen und den diastolischen Druck über die Zeit bei Verabreichung von 2,5 mg Base als Aerosol und unter C die systolischen und diastolischen Druckwerte bei Verabreichung der gleichen Wirksubstanz als Hydrochlorid und oral über die Zeit aufgetragen, wobei mit dem Zeitpunkt 0 Referenzwerte vorangestellt sind. Aus Tabelle B ist hiebei der rasche diastolische Druckanstieg bei sublingualer Verabreichung als Aerosol ersichtlich, wohingegen aus Tabelle C eine Steigerung des diastolischen Drucks frühestens nach Ablauf von 15 min entnommen werden kann.

In the case of `NCC(O)c1cccc(O)c1` (stereo not shown) [C, 1-(3'-Hydroxyphenyl)-2-aminoäthanol-hydrochlorid], the “Steigerung des diastolischen Drucks (time of onset)” value is reported as ≥ 15 min, the Diastole (1') is reported as 8,53 kPa and the Puls (1') is reported as 64 min⁻¹. For the same molecule, the Systole (1') was 14,40 kPa, the Diastole (3') was 8,67 kPa and the Puls (3') was 66 min⁻¹. For the same molecule, the Systole (3') was 14,00 kPa, the Diastole (5') was 8,53 kPa and the Puls (5') was 71 min⁻¹. The Systole (5') was 14,27 kPa, the Diastole (7') was 8,53 kPa and the Puls (7') was 68 min⁻¹. For the same molecule, the Systole (7') was 14,40 kPa, the Diastole (10') was 8,80 kPa and the Puls (10') was 66 min⁻¹. For the same molecule, the Systole (10') was 14,67 kPa, the Diastole (12') was 8,80 kPa and the Puls (12') was 68 min⁻¹. The Systole (12') was 13,87 kPa, the Diastole (15') was 8,67 kPa and the Puls (15') was 77 min⁻¹. For the same molecule, the Systole (15') was 14,40 kPa, the Diastole (20') was 9,33 kPa and the Puls (20') was 52 min⁻¹. The Systole (20') was 14,93 kPa, the Diastole (25') was 8,80 kPa and the Puls (25') was 67 min⁻¹. The Systole (25') was 13,73 kPa, the Diastole (30') was 9,60 kPa and the Puls (30') was 69 min⁻¹. For the same molecule, the Systole (30') was 14,27 kPa.
